What all share (assay type): in vivo
The subject of one assay is Pharbitis purpurea. The assay can be described thus: Post-emergence herbicidal action, PHBPU. To be noted: for herbicidal action PHBPU: Dosage 80 g/ha. Summed up:
(§1)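 Percent herbicidal effect was rated visually about 3 weeks after treatment, relative to untreated plants (0% = like control, 100% = dead). Compounds, formulated as WP or EC, went on as aqueous spray (600–800 l/ha, 0.2% wetting agent) to one-leaf-stage plants 2–3 weeks post-sowing in sandy loam.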

A further assay relates to Avena fatua. In words: Post-emergence herbicidal action, AVEFA. More on the design: key: % herbicidal action vs untreated; 100 = plants died, 0 = like control. To be noted: Dosage 80 g/ha. Summed up: as §1
For a further assay, the system named is Stellaria media. The assay can be described thus: Pre-emergence herbicidal action, STEME. More on the design: key to Herbicidal action against STEME: % activity: 100 = plants have died, 0 = like control plants. Conditions: for herbicidal action STEME / herbicidal activity STEME: dosage 320 g/ha; for herbicidal activity STEME: scored visually after 3 weeks vs untreated controls (100% = plants have died). Summed up: (§2)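 Application took place on the soil surface immediately after sowing into sandy loam, using aqueous WP or EC preparations with 0.2% wetting agent. Visual percent scoring followed 3 weeks later, untreated pots serving as reference.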

Another assay deals with Abutilon theophrasti. In words: Post-emergence herbicidal action, ABUTH. Conditions: for herbicidal action ABUTH: Dosage 80 g/ha. Details: key: % herbicidal action vs untreated; 100 = plants died, 0 = like control. An outline of the steps:
as §1

A further assay deals with Echinochloa crus-galli. In words: Pre-emergence herbicidal action, ECHCG. Details: key to Herbicidal action against ECHCG: % activity: 100 = plants have died, 0 = like control plants. Conditions: for herbicidal activity ECHCG / herbicidal action ECHCG: dosage 320 g/ha; for herbicidal activity ECHCG: scored visually after 3 weeks vs untreated controls (100% = plants have died). Summed up:
as §2

In a further assay the test system is Alopecurus myosuroides. The assay can be described thus: Post-emergence herbicidal action, ALOMY. More on the design: key: % herbicidal action vs untreated; 100 = plants died, 0 = like control. To be noted: Dosage 80 g/ha. An outline of the steps: as §1
Setting [1] is: comparative experiment, 20 g of a.i./ha.

For `CCCn1nnnc1NC(=O)c1ccc(S(C)(=O)=O)c(CSC)c1C` [Example 3-37], in the assay on Pharbitis purpurea, the “herbicidal action PHBPU” value was found to be 80. Further, the “herbicidal action AVEFA” value in the assay on Avena fatua is reported as 80. For the same compound, in the assay on Stellaria media, the “herbicidal action STEME” value is given as 90%. Moreover, in the assay on Abutilon theophrasti, the “herbicidal action ABUTH” value is listed as 80.
Turning to `CSc1c(C(=O)Nc2nnnn2C)ccc(C(F)F)c1C[S+](C)[O-]` (stereo not drawn) [Example 1-171], the “herbicidal action PHBPU” value in the assay on Pharbitis purpurea worked out at 90. For the same compound, in the assay on Echinochloa crus-galli, the “herbicidal activity ECHCG” value was 100%. Besides, the “herbicidal action ALOMY” value with Alopecurus myosuroides was 80. The “herbicidal activity STEME” value in the assay on Stellaria media is given as 100%. Also, in the assay with Abutilon theophrasti, the “herbicidal action ABUTH” value was found to be 100.
With `CCn1nnnc1NC(=O)c1ccc(C(F)(F)F)c(C[S+]([O-])CC2CC2)c1Cl` (stereo not drawn) [Example 2-315], the “herbicidal action PHBPU” value in the assay with Pharbitis purpurea came to 100. Moreover, the “herbicidal activity ECHCG” value in the assay with Echinochloa crus-galli is 100%. Also, in the assay with Avena fatua, the “herbicidal action AVEFA” value is recorded as 90. For the same compound, the “herbicidal activity STEME” value in the assay on Stellaria media was 100%. The “herbicidal action ABUTH” value in the assay on Abutilon theophrasti came to 100.
As for `CCCn1nnnc1NC(=O)c1ccc(C(F)(F)F)c(CS(=O)(=O)CC)c1Cl` [Example 3-301], the “herbicidal action PHBPU” value in the assay on Pharbitis purpurea stood at 100. For the same compound, the “herbicidal action ECHCG” value in the assay with Echinochloa crus-galli was found to be 100%. Also, the “herbicidal action AVEFA” value with Avena fatua worked out at 90. Moreover, the “herbicidal action STEME” value with Stellaria media worked out at 90%. Further, in the assay on Abutilon theophrasti, the “herbicidal action ABUTH” value stood at 80.
As to `CCCn1nnnc1NC(=O)c1ccc(C(F)F)c(CS(=O)(=O)CC)c1Cl` [Example 3-325], in the assay with Pharbitis purpurea, the “herbicidal action PHBPU” value came to 90. In addition, in the assay on Echinochloa crus-galli, the “herbicidal activity ECHCG” value stood at 100%. In addition, the “herbicidal action AVEFA” value in the assay with Avena fatua amounted to 100. The “herbicidal activity STEME” value in the assay on Stellaria media is 100%. For the same compound, in the assay with Abutilon theophrasti, the “herbicidal action ABUTH” value came to 100.
Take `CCCn1nnnc1NC(=O)c1ccc(C(F)F)c(CS(C)(=O)=O)c1Cl` [Example 3-322]: in the assay on Pharbitis purpurea, the “herbicidal action PHBPU” value worked out at 90. Moreover, the “herbicidal activity ECHCG” value in the assay on Echinochloa crus-galli is listed as 100%. Also, the “herbicidal action AVEFA” value in the assay on Avena fatua is 80. Also, the “herbicidal activity STEME” value with Stellaria media is recorded as 100%. Further, in the assay on Abutilon theophrasti, the “herbicidal action ABUTH” value stood at 100.
Turning to `CCCn1nnnc1NC(=O)c1ccc(C(F)(F)F)c(CS(C)(=O)=O)c1Br` [Example 3-382], the “herbicidal action PHBPU” value in the assay on Pharbitis purpurea amounted to 100. In the assay with Echinochloa crus-galli, the “herbicidal action ECHCG” value is given as 90%. The “herbicidal action STEME” value with Stellaria media worked out at 100%. The “herbicidal action ABUTH” value with Abutilon theophrasti was 100.
Consider `CCCn1nnnc1NC(=O)c1ccc(C(F)F)c(CS(C)(=O)=O)c1SC` [Example 3-172], for which the “herbicidal action PHBPU” value with Pharbitis purpurea is on record as 100. Further, the “herbicidal activity ECHCG” value in the assay on Echinochloa crus-galli was 100%. Moreover, the “herbicidal activity STEME” value in the assay on Stellaria media is 100%. In the assay with Abutilon theophrasti, the “herbicidal action ABUTH” value is given as 100.
On to `CCCn1nnnc1NC(=O)c1ccc(C(F)F)c(CSC)c1SC` [Example 3-170], for which the “herbicidal action PHBPU” value in the assay on Pharbitis purpurea was determined as 90. In addition, the “herbicidal activity ECHCG” value with Echinochloa crus-galli was determined as 100%. The “herbicidal action AVEFA” value with Avena fatua is listed as 80. Also, the “herbicidal activity STEME” value with Stellaria media worked out at 100%. For the same compound, the “herbicidal action ABUTH” value with Abutilon theophrasti is recorded as 100.
Consider `CCCn1nnnc1NC(=O)c1ccc(C(F)(F)F)c(CSCC)c1C` [Example 3-86], for which the “herbicidal action PHBPU” value with Pharbitis purpurea turned out to be 90. In addition, the “herbicidal action ECHCG” value in the assay on Echinochloa crus-galli is recorded as 100%. Also, in the assay with Avena fatua, the “herbicidal action AVEFA” value was determined as 80. In the assay with Abutilon theophrasti, the “herbicidal action ABUTH” value is listed as 80.
Consider `CCCn1nnnc1NC(=O)c1ccc(C(F)(F)F)c(CS(C)(=O)=O)c1Cl` [Example 3-298], for which the “herbicidal action PHBPU” value in the assay with Pharbitis purpurea is on record as 100. In addition, the “herbicidal activity ECHCG” value with Echinochloa crus-galli is recorded as 100%. The “herbicidal action AVEFA” value with Avena fatua stood at 100. Further, the “herbicidal activity STEME” value in the assay on Stellaria media worked out at 90%. In addition, in the assay with Abutilon theophrasti, the “herbicidal action ABUTH” value stood at 80.
On to `CCCn1nnnc1NC(=O)c1ccc(C(F)(F)F)c(CSC)c1SC` [Example 3-161], for which the “herbicidal action PHBPU” value in the assay with Pharbitis purpurea was 90. Moreover, in the assay with Echinochloa crus-galli, the “herbicidal action ECHCG” value is reported as 100%. Also, in the assay with Avena fatua, the “herbicidal action AVEFA” value was 90. The “herbicidal action STEME” value in the assay on Stellaria media was 100%. In addition, the “herbicidal action ABUTH” value with Abutilon theophrasti came to 100.
Take `COc1c(C(=O)Nc2nnnn2C)ccc(Cl)c1CSC` [Example 1-570]: the “Herbicidal action against PHBPU” value in the assay on Pharbitis purpurea (post-emergence, dosage 80 g/ha) came out at 90. For the same compound, the “herbicidal action ECHCG” value with Echinochloa crus-galli came to 90%. The “herbicidal action STEME” value in the assay on Stellaria media was 80%. Besides, in the assay with Abutilon theophrasti (post-emergence, dosage 80 g/ha), the “Herbicidal action against ABUTH” value was found to be 90.
With `Cn1nnnc1NC(=O)c1ccc(I)c(CS(C)(=O)=O)c1Cl` [Example 1-364], in the assay on Echinochloa crus-galli (setting [1]), the “Herbicidal action against ECHCG” value was found to be 90. Further, the “herbicidal activity ECHCG” value with Echinochloa crus-galli is on record as 100%. Also, the “herbicidal action ALOMY” value in the assay with Alopecurus myosuroides was found to be 90. In addition, the “Herbicidal action against STEME” value in the assay with Stellaria media (setting [1]) turned out to be 90. The “herbicidal activity STEME” value in the assay with Stellaria media amounted to 100%. For the same compound, in the assay on Abutilon theophrasti, the “herbicidal action ABUTH” value is 100.

Values taken from patent US12492173B2, “Herbicidal substituted N-tetrazolyl aryl carboxamides” (Bayer Aktiengesellschaft, priority 2019, dated 2025).
